Patent US6793914B2, “Anti-microbial compositions” (Unilever Home & Personal Care USA, division of Conopco, Inc., priority 2000, dated 2004)

test system: S. epidermidis; experiment: Anti-Microbial Test 2: in vitro growth inhibition by chelators (optical density at 600 nm); assay type: cell-based, Staphylococcus epidermidis (axillary isolate); conditions: chelator 5×10^−5 mol.dm^−3 in semi-synthetic medium pH 6.7, 16 hours at 37° C., relative to control medium
Protocol: The chelators indicated in Table 4 were subjected to the following in vitro test for anti-microbial activity against Staphylococcus Epidermididis.
An axillary isolate of S. epidermidis was grown overnight in 100 ml of tryptone soy broth (TSB, ex Oxoid Ltd.). 10 ml of this culture was taken and subjected to centrifugation. The separated cells were re-suspended in 10 ml of phosphate-buffered saline and the centrifugation procedure repeated. The washed cells were re-suspended in 10 ml of phosphate-buffered saline to give the inoculum.
100 ml of semi-synthetic medium (SSM) [containing (NH4)2SO4 (0.066 g), MgSO4.7H2O (0.012 g), KCl (0.1 g), KH2PO4 (0.27 g), Na2HPO4 (1.43 g), Thiamin (0.1 mg), Biotin (0.05 mg), Peptone P (0.05 g), Glucose (2.0 mmole)] was sterilised by autoclaving at 121° C. for 20 minutes. After sterilisation, the pH was adjusted to 6.7 with HCl to give the control medium. The chelator-containing test media were prepared in a similar manner, the chelator being introduced at a concentration of 5×10^−5 mol.dm^−3, before the pH adjustment with HCl.
100 μl of the inoculum was introduced into each of the test media and the control medium. The cultures were incubated at 37° C. (with agitation at 200 rpm) for 16 hours. After this time, the optical density of the cultures were measured at 600 nm to determine the extent of bacterial growth. By comparing the optical density of the culture in the presence of chelating agent to that of the control, the percentage inhibition of growth was established for each of the chelators. (Optical density measurements were made on 1 in 4 dilutions of the cultures with 0.9% (w/v) saline, using 1 cm path length cuvettes, on a Pharmacia Biotech Ultrospec 200 Spectrophotometer.)

SMILES	Inhibition of growth (%)
O=C(O)CN(CC(=O)O)[C@@H]1CCCC[C@H]1N(CC(=O)O)CC(=O)O (relative stereo) [CDTA, trans-1,2-diaminocyclohexane-N, N,N′,N′-tetraacetic acid]	>70%
O=C(O)CN(CCN(CC(=O)O)CC(=O)O)CC(=O)O [EDTA, ethylenediaminetetraacetic acid]	>70%
O=C(O)CC(NCCNC(CC(=O)O)C(=O)O)C(=O)O (mixture of isomers) [EDDS, N,N-ethylenediaminedisuccinic acid, reference compound]	18%
O=C(O)CN(CCN(CC(=O)O)CC(=O)O)CCN(CC(=O)O)CC(=O)O [DTPA, diethylenetriaminepentaacetic acid]	>70%
O=C(O)CN(CCOCCOCCN(CC(=O)O)CC(=O)O)CC(=O)O [EGTA, Ethyleneglycol-O,O′-bis-(2-aminoethyl)-N,N,N′,N′-tetraacetic acid, reference compound]	21%
O=C(O)CN(CCN(CCN(CC(=O)O)CC(=O)O)CC(=O)O)CCN(CC(=O)O)CC(=O)O [TTHA, triethylenetetraaminehexaacetic acid]	>70%
O=C(O)CN(CC(=O)O)CC(=O)O [NTA, Nitrilotriacetic acid, reference compound]	6%
O=C(O)C(NCCNC(C(=O)O)c1ccccc1O)c1ccccc1O (centres unmarked) [EDDHA, N,N′-ethylenebis[2-(2-hydroxyphenyl)glycine]]	>70%

test system: Staphylococcus epidermidis; experiment: not given; conditions: literature values; 80% or greater reduction in growth over 16 to 24 hours at 37° C.; cited from earlier work

SMILES	MIC
CC(C)=CCCC(C)=CCCC(C)=CCO [farnesol, 3,7,11-trimethyldodeca-2,6,10-trienol]	ca. 25 μg.ml^−1
Oc1cc(Cl)ccc1Oc1ccc(Cl)cc1Cl [triclosan, 2′,4,4′-trichloro,2-hydroxy-diphenyl ether]	0.01 to 10 µg/mL

same assay, conditions: stated by contrast, no source given; cited from earlier work

SMILES	MIC
CCO [ethanol]	greater than 1 mg.ml^−1

test system: not given; experiment: not given; conditions: Critical Stability Constants, Martell and Smith, 1974; cited from earlier work

SMILES	iron (III) binding constant
O=C(O)CC(NCCNC(CC(=O)O)C(=O)O)C(=O)O (mixture of isomers) [EDDS, N,N-ethylenediaminedisuccinic acid, reference compound]	10^22

same assay, conditions: fully deprotonated chelator, independent of pH; cited from earlier work

SMILES	Log10K (iron (III) binding constant)
O=C(O)CN(CC(=O)O)[C@@H]1CCCC[C@H]1N(CC(=O)O)CC(=O)O (relative stereo) [CDTA, trans-1,2-diaminocyclohexane-N, N,N′,N′-tetraacetic acid]	28.05
O=C(O)CN(CCN(CC(=O)O)CC(=O)O)CC(=O)O [EDTA, ethylenediaminetetraacetic acid]	25.1
O=C(O)CC(NCCNC(CC(=O)O)C(=O)O)C(=O)O (mixture of isomers) [EDDS, N,N-ethylenediaminedisuccinic acid, reference compound]	22.0
O=C(O)CN(CCN(CC(=O)O)CC(=O)O)CCN(CC(=O)O)CC(=O)O [DTPA, diethylenetriaminepentaacetic acid]	28.6
O=C(O)CN(CCOCCOCCN(CC(=O)O)CC(=O)O)CC(=O)O [EGTA, Ethyleneglycol-O,O′-bis-(2-aminoethyl)-N,N,N′,N′-tetraacetic acid, reference compound]	20.5
O=C(O)CN(CCN(CCN(CC(=O)O)CC(=O)O)CC(=O)O)CCN(CC(=O)O)CC(=O)O [TTHA, triethylenetetraaminehexaacetic acid]	26.8
O=C(O)CN(CC(=O)O)CC(=O)O [NTA, Nitrilotriacetic acid, reference compound]	15.9
O=C(O)C(NCCNC(C(=O)O)c1ccccc1O)c1ccccc1O (centres unmarked) [EDDHA, N,N′-ethylenebis[2-(2-hydroxyphenyl)glycine]]	35.5
